Laboratory results: patent publication US9840547B2, “Hepatic insulin sensitizing substance and test meal for insulin sensitization” (SciMar Ltd., priority 2013, dated 2017)

Legend:
[1] = system: cultured L6 skeletal muscle cells; test: Plasma HISS activity on glucose uptake in cultured L6 skeletal muscle cells (2-NBDG bioassay); assay type: cell-based; details: plasma insulin concentration versus RFU, linear regression
Experimental: Individual plasma samples were tested in 1-3 wells/sample with 2 measurements/well.

[2] = Time course of hypoglycemic action in humans; assay type: in vivo; details: after an intravenous injection
[3] = Time course of hypoglycemic action in rats; assay type: in vivo; details: after an intravenous injection
[4] = literature; cited from earlier work

Row | Substance | stimulation of glucose uptake response in L6 cells [1] | time at which action returns to baseline [2] [min] | time at which action returns to baseline [3] [min] | hypoglycemic action [4]
1 | insulin | not stimulated by insulin | 90 | 35 | 
2 | bone morphogenetic protein 9 |  |  |  | no rapid hypoglycemic effect
